Results on 21 compounds are retold here after patent publication US20240368133A1, “Compounds for the Treatment of Pain, in Particular, Neuropathic Pain, and/or Other Diseases or Disorders that are Associated with AT2R and/or AT2R Mediated Signaling” (Confo Therapeutics N.V., priority 2021, published 2024).

The structures appear in SMILES notation.

The target of test [1] is human AT1R (Homo sapiens (Human), UniProt P30556). In words: Counterscreen radioligand binding assay, displacement of 125I-[Sar1, Ile8]-Angiotensin II, hAT1R WT. The following applies: for inhibition at 1 µM / inhibition at 10 µM: 125I-[Sar1, Ile8]-Ang II, semi-quantitative score; for inhibition at 1 µM: compound at 1 μM, read-out: % Displaced radioligand at 1 μM; for inhibition at 10 µM: compound at 10 μM, read-out: % Displaced radioligand at 10 μM; for IC50: HEK-293 cell membranes, read-out: Binding affinity On hAT1R IC50. The procedure: (§1) All synthesized ligands were evaluated in a radioligand assay by displacing ^125I-[Sar1, Ile8]-Angiotensin II (Perkin Elmer, NEX248050UC) from human AT2R fused to Cb23 or human/rodent/cynomolgus/minipig/dog WT AT2R in HEK-293 cells membrane preparations, using C21 (Vicore Pharma) and Angiotensin II (endogenous ligand) as reference. The affinity was determined using an eight-point dose-response curve, each point performed in duplicates. The compounds were also evaluated in a counterscreen binding assay for displacement of ^125I-[Sar1, Ile8]-Angiotensin II binding to human AT1R in HEK-293 cell membranes. For AT1R, the percent displacement was determined at 1 μM and […] (in duplicates) or using an eight-point dose-response curve, each point performed in duplicates with Candesartan and Losartan used as reference.
(§2) For the AT2R/AT1R binding assays, cell membranes, expressing AT2R_Cb23, AT2R or AT1R, were incubated with 0.05 nM ^125I-[Sarl, Ile8]-Ang II. The ligand competition assay was performed in a total volume of 100 μL assay buffer (50 mM Tris, 5 mM MgCl2, 1 mM EDTA, 0.1% BSA, pH 7.4), at concentrations ranging from […] to 10 μM. For each experiment, each ligand concentration was tested in duplicate. Non-specific binding (NSB) was determined by the inclusion of 10 μM unlabeled [Sarl]-Ang II (Sigma Aldrich). The reaction was initiated by the addition of radioligand, after which the plates were incubated at 25° C. for one hour. The reaction was terminated by rapid filtration using a vacuum harvester, applying six washes with 100 μL of ice-cold wash buffer (50 mM Tris.HCl, pH 7.4). The filter plates GF/C (Perkin Elmer) were pre-soaked in 0.5% PEI. The residual amount of radioactivity was determined via liquid scintillation counting. IC50 values, representing the concentration at which each ligand displaced 50% of ^125I-[Sarl, Ile8]-Ang II, were calculated using GraphPad Prism 7.02 by applying a Non-linear regression equation (variable slope, four parameters) on the data. The obtained values serve as affinity estimates for each ligand and their ability to compete against the radioligand for binding with AT2R or AT1R, respectively.
On the technique in general: A counterscreen serves to expose hits that act by an unwanted route or on another target.

Test [2] addresses human AT2R fused to Cb23 (Homo sapiens, UniProt P50052). In words: Radioligand binding assay, displacement of 125I-[Sar1, Ile8]-Angiotensin II, hAT2R Cb23. The settings on record: displacement of 125I-[Sar1, Ile8]-Angiotensin II, human AT2R fused to Cb23, HEK-293 cell membrane preparations; read-out: Binding affinity on hAT2R_Cb23 IC50. The procedure:
as §1, §2

Chain of human AT1R (P30556 whole entry, the tested form may be a part): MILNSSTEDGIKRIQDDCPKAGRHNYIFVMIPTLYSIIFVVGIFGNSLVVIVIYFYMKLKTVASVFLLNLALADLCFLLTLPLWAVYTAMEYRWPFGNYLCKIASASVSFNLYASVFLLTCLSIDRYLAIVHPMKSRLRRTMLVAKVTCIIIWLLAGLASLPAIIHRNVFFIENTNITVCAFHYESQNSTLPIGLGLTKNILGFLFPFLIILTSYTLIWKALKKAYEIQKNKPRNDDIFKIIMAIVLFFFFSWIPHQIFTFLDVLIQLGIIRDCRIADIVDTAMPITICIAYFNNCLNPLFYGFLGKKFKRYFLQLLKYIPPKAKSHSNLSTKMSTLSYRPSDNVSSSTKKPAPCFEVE
Chain of human AT2R fused to Cb23 (P50052 whole entry, looked up, the tested form may be a part): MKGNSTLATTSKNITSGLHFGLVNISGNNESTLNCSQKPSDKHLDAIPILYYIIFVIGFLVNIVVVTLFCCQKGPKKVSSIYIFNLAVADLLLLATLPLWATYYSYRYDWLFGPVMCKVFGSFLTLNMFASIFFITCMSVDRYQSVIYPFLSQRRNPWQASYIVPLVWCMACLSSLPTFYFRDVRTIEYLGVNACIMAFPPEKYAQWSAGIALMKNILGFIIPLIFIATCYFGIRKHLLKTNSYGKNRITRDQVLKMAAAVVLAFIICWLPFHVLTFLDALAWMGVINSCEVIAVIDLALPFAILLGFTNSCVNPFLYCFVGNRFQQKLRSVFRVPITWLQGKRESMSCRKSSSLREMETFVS

Turning to `CCCCOC(=O)NS(=O)(=O)c1ccc(C)cc1N1CCN(Cc2nc3ccccc3n2C)CC1` [Compound A-11, butyl N-[4-methyl-2-[4-[(1-methylbenzimidazol-2-yl)methyl]piperazin-1-yl]phenyl]sulfonylcarbamate], in test [1], the inhibition at 1 µM is < 30%, the inhibition at 10 µM is < 30% and the IC50 amounted to 37.7 µM. Besides, the IC50 in test [2] turned out to be 0.959 µM.
Take `CCS(=O)(=O)NC(=O)c1ccccc1N1CCN(Cc2nc3ccccc3n2C)CC1` [Compound A-13, N-ethylsulfonyl-2-[4-[(1-methylbenzimidazol-2-yl)methyl]piperazin-1-yl]benzamide]: in test [1], the inhibition at 1 µM is < 30% and the inhibition at 10 µM was < 30%. In test [2], the IC50 is 13.6 µM.
As for `CCS(=O)(=O)NC(=O)c1ccc(OC(C)C)cc1N1CCN(Cc2nc3ccccc3n2C)CC1` [Compound A-14, N-ethylsulfonyl-4-isopropoxy-2-[4-[(1-methylbenzimidazol-2-yl)methyl]piperazin-1-yl]benzamide], in test [1], the inhibition at 1 µM was < 30% and the inhibition at 10 µM was < 30%. Moreover, the IC50 in test [2] came to 4.82 µM.
Turning to `Cn1c(CN2CCN(c3cc(C(F)(F)F)ccc3-c3nn[nH]n3)CC2)nc2ccccc21` [Compound A-17, 1-methyl-2-[[4-[2-(2H-tetrazol-5-yl)-5-(trifluoromethyl)-phenyl]piperazin-1-yl]methyl]benzimid-azole], in test [1], the inhibition at 1 µM was < 30% and the inhibition at 10 µM was < 30%. Besides, the IC50 in test [2] stood at 14.3 µM.
Turning to `C/C=C/c1ccc(-c2nn[nH]n2)c(N2CCN(Cc3nc4ccccc4n3C)CC2)c1` [Compound A-18, 1-methyl-2-[[4-[5-[(E)-prop-1-enyl]-2-(2H-tetrazol-5-yl)-phenyl]piperazin-1-yl]methyl]benz-imidazole], in test [1], the inhibition at 1 µM was < 30% and the inhibition at 10 µM was < 30%. The IC50 in test [2] was 3.85 µM.
For the compound `CCCc1ccc(-c2nn[nH]n2)c(N2CCN(Cc3nc4ccccc4n3C)CC2)c1` [Compound A-19, 1-methyl-2-[[4-[5-propyl-2-(2H-tetrazol-5-yl)phen-yl]piperazin-1-yl]-methyl]benzimid-azole], in test [1], the inhibition at 1 µM is < 30%, the inhibition at 10 µM is < 30% and the concentration for half-maximal inhibition (IC50) turned out to be 47.4 µM. The IC50 in test [2] was 1.17 µM.
Take `CC(C)=Cc1ccc(-c2nn[nH]n2)c(N2CCN(Cc3nc4ccccc4n3C)CC2)c1` [Compound A-21, 1-methyl-2-[[4-[5-(2-methylprop-1-enyl)-2-(2H-tetrazol-5-yl)phen-yl]piperazin-1-yl]-methyl]benzimid-azole]: in test [1], the inhibition at 1 µM is < 30%, the inhibition at 10 µM is < 30% and the IC50 stood at 41.7 µM. Further, in test [2], the IC50 was determined as 0.488 µM.
Take `COc1ccc(-c2nn[nH]n2)c(N2CCN(Cc3nc4ccccc4n3C)CC2)c1` [Compound A-22, 2-[[4-[5-methoxy-2-(2H-tetrazol-5-yl)phenyl]piperazin-1-yl]methyl]-1-methyl-benzimidazole]: in test [1], the inhibition at 1 µM is < 30% and the inhibition at 10 µM was < 30%. Also, the IC50 in test [2] worked out at 19.7 µM.
Turning to `CCOc1ccc(-c2nn[nH]n2)c(N2CCN(Cc3nc4ccccc4n3C)CC2)c1` [Compound A-23, 2-[[4-[5-ethoxy-2-(2H-tetrazol-5-yl)-phenyl]piperazin-1-yl]methyl]-1-meth-yl-benzimidazole], in test [1], the inhibition at 1 µM was < 30% and the inhibition at 10 µM is < 30%. The IC50 in test [2] is 2.37 µM.
On to `CC(C)Oc1ccc(-c2nn[nH]n2)c(N2CCC(Cc3nc4ccccc4n3C)CC2)c1` [Compound A-25, 2-[[1-[5-isopropoxy-2-(2H-tetrazol-5-yl)phenyl]-4-piperidyl]methyl]-1-methyl-benzimid-azole], for which, in test [1], the inhibition at 1 µM was < 30% and the inhibition at 10 µM was < 30%. Moreover, the IC50 in test [2] came to 8.31 µM.
As to `O=c1[nH]c(CN2CCN(c3cc(C4CC4)ccc3-c3nn[nH]n3)CC2)nc2ccccc12` [Compound A-28, 2-[[4-[5-cyclopropyl-2-(2H-tetrazol-5-yl)phenyl]piperazin-1-yl]methyl]-3H-quinazolin-4-one], in test [1], the inhibition at 1 µM is < 30% and the inhibition at 10 µM was < 30%. For the same compound, in test [2], the IC50 turned out to be 3.56 µM.
In the case of `CCc1ccc(C(=O)NS(=O)(=O)CC)c(N2CCN(Cc3nc4ccccc4s3)CC2)c1` [Compound A-33, 2-[4-(1,3-benzothiazol-2-ylmethyl)piperazin-1-yl]-4-ethyl-N-ethylsulfonyl-benzamide], in test [1], the inhibition at 1 µM was < 30% and the inhibition at 10 µM is < 30%. Also, the IC50 in test [2] amounted to 3.07 µM.
As to `CCS(=O)(=O)NC(=O)c1ccc(C(C)C)cc1N1CCN(Cc2nc3ccccc3s2)CC1` [Compound A-34, 2-[4-(1,3-benzo-thiazol-2-ylmethyl)-piperazin-1-yl]-N-ethylsulfonyl-4-iso-propyl-benzamide], in test [1], the inhibition at 1 µM is < 30% and the inhibition at 10 µM is < 30%. Further, the IC50 in test [2] is 0.484 µM.
In the case of `CCS(=O)(=O)NC(=O)c1ccc(C2CC2)cc1N1CCN(Cc2nc3ccccc3s2)CC1` [Compound A-35, 2-[4-(1,3-benzothiazol-2-ylmethyl)piperazin-1-yl]-4-cyclopropyl-N-ethylsulfonyl-benzamide], in test [1], the inhibition at 1 µM was < 30%, the inhibition at 10 µM is < 30% and the IC50 came out at 31.4 µM. Moreover, in test [2], the IC50 was 0.602 µM.
For `CCS(=O)(=O)NC(=O)c1ccc(CC(C)C)cc1N1CCN(Cc2nc3ccccc3s2)CC1` [Compound A-36, 2-[4-(1,3-benzo-thiazol-2-ylmethyl)-piperazin-1-yl]-N-ethylsulfonyl-4-isobutyl-benzamide], in test [1], the inhibition at 1 µM was < 30% and the inhibition at 10 µM is < 30%. Besides, in test [2], the IC50 worked out at 1.42 µM.
Turning to `CCS(=O)(=O)NC(=O)c1ccc(OC)cc1N1CCN(Cc2nc3ccccc3s2)CC1` [Compound A-37, 2-[4-(1,3-benzothiazol-2-ylmethyl)piperazin-1-yl]-N-ethylsulfonyl-4-methoxy-benzamide], in test [1], the inhibition at 1 µM was < 30% and the inhibition at 10 µM was < 30%. Further, the IC50 in test [2] is 6.58 µM.
On to `CCOc1ccc(C(=O)NS(=O)(=O)CC)c(N2CCN(Cc3nc4ccccc4s3)CC2)c1` [Compound A-38, 2-[4-(1,3-benzothiazol-2-ylmethyl)piperazin-1-yl]-4-ethoxy-N-ethylsulfonyl-benzamide], for which, in test [1], the inhibition at 1 µM is < 30%, the inhibition at 10 µM was in the range of 30 to 50% and the IC50 turned out to be 13.6 µM. In addition, the IC50 in test [2] stood at 2.4 µM.
As to `CCS(=O)(=O)NC(=O)c1ccc(OC(C)C)cc1CN1CCN(c2nc3ccccc3s2)CC1` [Compound A-39, 2-[[4-(1,3-benzothiazol-2-yl)piperazin-1-yl]methyl]-N-ethylsulfonyl-4-isopropoxy-benzamide], in test [1], the inhibition at 1 µM was < 30% and the inhibition at 10 µM was < 30%. For the same compound, in test [2], the IC50 was 2.81 µM.
For `CCS(=O)(=O)NC(=O)c1ccc(OC(C)C)cc1N1CCN(Cc2nc3ccccc3s2)CC1` [Compound A-40, 2-[4-(1,3-benzothiazol-2-ylmethyl)piperazin-1-yl]-N-ethylsulfonyl-4-isopropoxy-benzamide], in test [1], the inhibition at 1 µM is < 30%, the inhibition at 10 µM was < 30% and the IC50 was found to be 36.6 µM. Besides, in test [2], the IC50 amounted to 5.87 µM.
Consider `CCS(=O)(=O)NC(=O)c1ccc(OC2CC2)cc1N1CCN(Cc2nc3ccccc3s2)CC1` [Compound A-41, 2-[4-(1,3-benzothiazol-2-ylmethyl)piperazin-1-yl]-4-(cyclopropoxy)-N-ethylsulfonyl-benzamide], for which, in test [1], the inhibition at 1 µM was < 30%, the inhibition at 10 µM is 30 to 50% and the IC50 turned out to be 16.5 µM. For the same compound, in test [2], the IC50 was 2.54 µM.
With `CCCOc1ccc(C(=O)NS(=O)(=O)CC)c(N2CCN(Cc3nc4ccccc4s3)CC2)c1` [Compound A-42, 2-[4-(1,3-benzothiazol-2-ylmethyl)piperazin-1-yl]-N-ethylsulfonyl-4-propoxy-benzamide], in test [1], the inhibition at 1 µM was < 30%, the inhibition at 10 µM lay in the range of 30 to 50% and the IC50 came to 26.3 µM. In addition, the IC50 in test [2] is 17.7 µM.

Broadly, the IC50 is the concentration needed to halve the response being measured.
